Values quoted from earlier work in PMC8511391, “Optimization of Pichia pastoris Expression System for High-Level Production of Margatoxin” (Frontiers in Pharmacology, 2021).

Legend:
[1] = system: Kv1.1; settings: abstract, ref not given; cited from earlier work
Excerpt: Margatoxin (MgTx) is a high-affinity blocker of voltage-gated potassium (Kv) channels. […] This toxin is widely used to study physiological function of Kv ion channels in various cell types, including immune cells. Isolation of native MgTx in large quantities from scorpion venom is not affordable. Chemical synthesis and recombinant production in Escherichia coli need in vitro oxidative refolding for proper disulfide bond formation, resulting in a very low yield of peptide production. The Pichia pastoris expression system offers an e ...

[2] = system: Kv1.2; settings: 2014, cited from earlier work
Procedure: Margatoxin (MgTx) is a 39-amino-acid peptide toxin isolated from the venom of the scorpion Centruroides margaritatus. Its 3D structure consists of an α-helix and three antiparallel β-strands stabilized by three disulfide bonds. […] Previous studies report the production of recombinant MgTx (rMgTx) in E. coli and P. ... || Pharmacological activity of both versions of rMgTx was evaluated by studying their effect on the hKv1.2 and hKv1.3 ion channels. The hKv1.2 current was recorded in CHO cells, which heterologously expressed the hKv1.2 ion channel, and hKv1.3 current was recorded in the human peripheral blood lymphocytes. The stimulation of the hKv1.3 channel expression (activation of isolated mononuclear cells by PHA, see the Materials and Methods section) and recording conditions (no Ca^2+ in the pipette to elicit Ca^2+-activated K^+ channels) guaranteed that the current recorded in these cells is K^+ current ... || The kinetics of current block by UrMgTx was consistent with previously reported data for MgTx. […] The association rate of TrMgTx, which has the N-terminal His-tag, was ∼1.6-fold lower than that of UrMgTx for both hKv1.2 and hKv1.3. The reduced k on rate could be explained by non–diffusion-limited bimolecular toxin–channe ...

[3] = system: Kv1.3; settings: 2014, cited from earlier work
Procedure: Voltage-gated potassium (Kv) channels are present in a variety of cells and tissues where they regulate multiple physiological processes, including cardiac function, neural excitability, muscle contraction, cell proliferation, cell volume control, and hormonal secretion ([Coetzee et al., 1999]; [Giangiacomo et al., 2004]). […] Previous studies report the production of recombinant MgTx (rMgTx) in E. coli and P. ... || Pharmacological activity of both versions of rMgTx was evaluated by studying their effect on the hKv1.2 and hKv1.3 ion channels. The hKv1.2 current was recorded in CHO cells, which heterologously expressed the hKv1.2 ion channel, and hKv1.3 current was recorded in the human peripheral blood lymphocytes. The stimulation of the hKv1.3 channel expression (activation of isolated mononuclear cells by PHA, see the Materials and Methods section) and recording conditions (no Ca^2+ in the pipette to elicit Ca^2+-activated K^+ channels) guaranteed that the current recorded in these cells is K^+ current ... || (+ 2 further places)

[4] = ref Garcia-Calvo et al., 1993, Bartok et al.

MgTx (TIINVKCTSPKQCLPPCKAQFGQSAGAKCMNGKCKCYPH; UniProt P40755 1-39, looked up)
inhibition of Kv1.1 [1]: in picomolar concentrations
kinetics and reversibility of block, hKv1.2 ([2]; hKv1.2, whole-cell patch-clamp, ref Bartok et al.): develops relatively slowly and reversibility of the block is limited
inhibition of Kv1.2 [2, 4]: high potency in picomolar concentrations
kinetics and reversibility of block, hKv1.3 ([3]; hKv1.3, whole-cell patch-clamp, ref Bartok et al.): equilibrium block develops rapidly and is fully recoverable upon washout
inhibition of Kv1.3 [3, 4]: high potency in picomolar concentrations
